Data published in doi:10.1101/2024.08.13.607848, “Bibacillin 1: A two-component lantibiotic from Bacillus thuringiensis” (bioRxiv, 2024).

Assays:
rabbit erythrocytes = type: cell-based; details: total peptide concentration 2 µM; 1 h at 37 °C; hemoglobin release, absorbance at 415 nm; mixture 1:1
Procedure: Solution phase hemolysis assays were conducted as described previously.[35]
Fig. S2. […] A) Hemoglobin release […]
erythrocytes were treated with 0.03% v/v triton X-100. Negative control contained only buffer. A total peptide concentration of 2 µM was used in each case. B) Extent of hemolysis after treating freshly washed rabbit erythrocytes with 1:1 of CylLS”:CylLL” at 37 ̊C for 1 h. Data was fit to a […]
(1 picture or pasted object on this page, not shown here)

[1] = tested on: Micrococcus luteus ATCC 4698; assay: Agar diffusion assay using bacteria; type: cell-based
Procedure: Fig. 4. […] Cytolysin was used as a positive control.
Overnight cultures of bacteria were prepared according to Table S1. The OD600 of each culture was determined and adjusted to a value of 1 using the appropriate growth media. Molten growth media containing 0.7% agar was cooled to 50 °C and inoculated with 50 μL of adjusted overnight culture for every 5 mL of molten growth media. The inoculated molten growth media was immediately poured onto a pre-warmed agar (2%) plate prepared using the same media. The plate was allowed to set for 30 min at room temperature before adding 3 μL of peptide stock diluted in PBS to 100 μM. The deposited peptide solutions were allowed to stand on the agar plate for 30 min before incubation for 16–36 h at the optimum growth temperature until the desired cell density was achieved.

[2] = In vitro pore formation assay, pyranine-encapsulated liposomes; details: total peptide concentration 5 μM; DOPC liposomes containing or lacking 0.1 mol% lipid II; mixture 1:1
Procedure: To investigate the lipid II-dependence of the pore formation activity of bibacillin 1, pyranine-encapsulated liposomes were prepared containing or lacking lipid II and pore formation was monitored via pH-dependent pyranine fluorescence.[70]
This assay was conducted as described elsewhere.[70]

[3] = SDS-PAGE analysis of oligomerization; type: physicochemical; details: in the presence of SDS
Description: Using agar plates seeded with E. faecalis pXL110 and the colorimetric LacZ substrate X-gal, LacZ expression was visualized. Consistent with previous reports,[43] […] Comparing the structures of CylLS” and Bib1β (Fig. 1A and 2B), we speculated that the presence of Ser16 in Bib1β rather than the hydrophobic residues present in CylLS” in this region might interfere with CylR1 binding possibly due to hydrophobic mismatching. […] To determine whether bibacillin 1 could quorum sense through an aggregation mechanism, the aggregation propensity of bibacillin 1 was analyzed using SDS-PAGE and dynamic light scattering (DLS). […] Since SDS can influence aggregation, the aggregation of bibacillin 1 was further investigated under SDS-free conditions using DLS (Fig. 6B). Bib1α exists in solution as aggregates that are 159 nm in diameter on average (PDI = 0.224) and Bib1β forms aggregates that are 291 nm in diameter on average (PDI = 0.384). […] Confirmation of this hypothesis will require in vitro studies with Bib1R1/R2.

Row | Structure (SMILES) | Hemolysis in solution phase assay (rabbit erythrocytes) | Growth inhibition in agar diffusion assay [1] | Pore formation activity in liposomes, pyranine fluorescence [2] | Oligomeric state by SDS-PAGE [3]
1 | C=C(NC(=O)[C@H](C)NC(=O)[C@@H]1CS[C@H](C)[C@H](N)C(=O)NC(=C)C(=O)N2CCC[C@H]2C(=O)N[C@@H](C)C(=O)N1)C(=O)N[C@@H](C)C(=O)N[C@@H](CCSC)C(=O)N[C@@H](CC(C)C)C(=O)N[C@@H](Cc1ccc(O)cc1)C(=O)N[C@@H](CC(C)C)C(=O)N[C@@H](CCC(N)=O)C(=O)NCC(=O)N[C@H](C(=O)NC(=CC)C(=O)N[C@H](C(=O)NC(=C)C(=O)N[C@@H](CC(C)C)C(=O)NCC(=O)N[C@@H](CC(C)C)C(=O)N[C@@H]1CSC[C@@H](C(=O)O)NC(=O)[C@H](Cc2c[nH]cn2)NC(=O)[C@H](CCSC)NC(=O)[C@H](CCCNC(=N)N)NC1=O)C(C)C)C(C)C [Bib1α] | did not induce hemolysis | weak individual activity | pore formation activity that was somewhat enhanced by the addition of lipid II | oligomeric in the presence of SDS
2 | CC=C1NC(=O)[C@@H](N)[C@@H](C)SC[C@@H](C(=O)N[C@@H](C)C(=O)N[C@H](C(=O)NCC(=O)NCC(=O)NCC(=O)N[C@@H](CC(C)C)C(=O)N[C@@H](C)C(=O)N[C@@H](CC(C)C)C(=O)NCC(=O)N[C@@H](Cc2ccccc2)C(=O)N[C@@H](CO)C(=O)N[C@H](C(=O)N[C@@H]2CSC[C@@H](C(=O)O)NC(=O)[C@H](Cc3ccc(O)cc3)NC(=O)[C@H]([C@@H](C)CC)NC(=O)[C@H](CCCCN)NC2=O)[C@@H](C)CC)[C@@H](C)CC)NC(=O)[C@H](C(C)C)NC(=O)[C@@H]2CCCN2C1=O [Bib1β] | did not induce hemolysis | weak individual activity | – | oligomeric in the presence of SDS
